# From US12492163B2, “9H-fluorene derivatives or their pharmaceutically acceptable salts” (priority 2020, dated 2025)
# Tests used:
# [1] = molecular target: human recombinant beta-secretase (hBACE1) (Homo sapiens (Human), UniProt P56817); test: FRET assay, inhibition of human recombinant beta-secretase; type: biochemical; conditions: 50 μM inhibitor concentration; read-out: hBACE-1 % inh
# How it was run: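 hBACE1 (added as 1 U/ml solution) cleaves a rhodamine/quencher peptide based on the Swedish APP mutation in 50 mM sodium acetate pH 4.5, 60 min at 25 °C, stopped with 2.5 M sodium acetate; fluorescence at 576 nm. % inhibition from 0–60 min signal change versus enzyme-only blanks; screened at 50 μM in triplicate; IC50 by non-linear regression.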
# [2] = molecular target: Recombinant human Aβ1-42 peptide (Homo sapiens (Human), UniProt P05067); test: Thioflavin T test, antiaggregation activity against beta-amyloid; type: biochemical; conditions: 10 μM test compound, 1.5 μM Aβ1-42; read-out: inh. Aβ aggr. % inh
# Chain of Recombinant human Aβ1-42 peptide (P05067 672-713): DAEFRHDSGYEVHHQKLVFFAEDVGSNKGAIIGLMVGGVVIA
# How it was run: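 Aβ1-42 (1.5 μM final, HFIP-pretreated) aggregated in HEPES pH 7.4 with 150 mM NaCl, thioflavin T 10 μM, 3% DMSO, compound 10 μM. Fluorescence (ex 440/em 490 nm) read every 300 s with mixing; plateau values minus t=0 give % inhibition; IC50 by non-linear regression against concentration.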
# mGAT3 = mGAT3 (Mus musculus (Mouse), UniProt P31649); test: [3H]GABA uptake inhibition, mGAT3 in HEK293 cells; type: cell-based; conditions: GABA reuptake
# Chain of mGAT3 (P31649 whole entry): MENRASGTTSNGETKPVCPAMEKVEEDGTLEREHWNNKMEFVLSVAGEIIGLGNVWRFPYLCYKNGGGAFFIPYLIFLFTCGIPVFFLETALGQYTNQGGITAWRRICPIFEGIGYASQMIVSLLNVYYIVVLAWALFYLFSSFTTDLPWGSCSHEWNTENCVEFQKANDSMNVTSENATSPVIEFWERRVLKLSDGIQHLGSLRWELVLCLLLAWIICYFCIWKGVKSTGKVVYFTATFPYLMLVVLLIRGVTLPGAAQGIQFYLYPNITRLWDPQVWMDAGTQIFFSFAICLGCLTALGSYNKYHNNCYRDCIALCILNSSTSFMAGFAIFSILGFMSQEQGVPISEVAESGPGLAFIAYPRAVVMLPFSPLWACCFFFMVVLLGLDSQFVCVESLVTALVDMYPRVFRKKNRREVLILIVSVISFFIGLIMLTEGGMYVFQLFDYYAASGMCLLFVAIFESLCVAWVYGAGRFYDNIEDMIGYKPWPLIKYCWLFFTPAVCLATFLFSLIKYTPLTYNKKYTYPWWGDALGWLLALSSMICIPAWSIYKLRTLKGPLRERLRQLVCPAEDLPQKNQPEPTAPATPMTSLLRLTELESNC
# Description: Exemplary compounds according to the invention were screened at the Ludwig-Maximilian University of Munich to determine the inhibitory ability towards four mouse GAT transporters (mGAT1-mGAT4). […] The biological material was stably transfected human embryonic kidney HEK293 cells, expressing genes to the appropriate transporters. The generated radioactivity was measured with a liquid scintillation counter. […] These determinations were made according to the procedure described in detail in A. Kragler, G. Höfner, K. T. Wanner, Novel parent structures for inhibitors of the murine GABA transporters mGAT3 and mGAT4, Eur. J. Pharmacol. 519 (2005) 43-47.
# Chain of human recombinant beta-secretase (hBACE1) (P56817 46-501): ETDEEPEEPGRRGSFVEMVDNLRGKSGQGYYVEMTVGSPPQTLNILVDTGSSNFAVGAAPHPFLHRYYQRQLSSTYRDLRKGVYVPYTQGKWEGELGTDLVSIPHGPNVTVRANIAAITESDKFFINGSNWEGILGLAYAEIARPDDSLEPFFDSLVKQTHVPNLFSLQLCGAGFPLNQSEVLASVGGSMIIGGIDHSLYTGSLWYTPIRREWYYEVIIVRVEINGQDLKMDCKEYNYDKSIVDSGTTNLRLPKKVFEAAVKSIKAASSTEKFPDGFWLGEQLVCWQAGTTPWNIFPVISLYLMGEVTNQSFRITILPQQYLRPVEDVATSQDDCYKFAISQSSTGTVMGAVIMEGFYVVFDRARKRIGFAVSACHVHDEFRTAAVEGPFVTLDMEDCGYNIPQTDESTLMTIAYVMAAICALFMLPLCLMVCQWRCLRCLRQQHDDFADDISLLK
structure (smiles),measurement,setting,value
"O[C@H](CNCC1CC1)[C@H](Cc1ccccc1)NC1c2ccccc2-c2ccccc21 [JT-3, (2R,3S)-3-((9H-fluoren-9-yl)amino)-1-((cyclopropylmethyl)amino)-4-phenylbutan-2-ol]",inhibition at 50 µM,[1],61.3%
same,inhibition at 10 µM,[2],79%
same,pIC50 (+/−SEM) mGAT3,mGAT3,5.13 +/− 0.04
